Molecules are shown by their SMILES. Where two headings read alike, the source gives them in different places. A value given as a limit tells only on which side of the number the result lay.

Broadly, the Emax is the maximal effect, on the per cent scale that the assay sets. What is called AC50 is the concentration giving half of the maximal activity seen. What is called IC50 is the point on the concentration scale where inhibition reaches its midpoint. High values mean lower potency, low ones higher potency. In general, Kd refers to the concentration at which binding is half-saturated.

The target in assay [1] is p53 Y220C (Homo sapiens, UniProt P04637, Y220C). Briefly: Luciferase Reporter Assay (Luc), p53 response element, NClH1299 cells with inducible p53 Y220C. It counts as cell-based. The conditions noted are these: for Emax: 10 uM tool compound as positive control. In short, it runs like this: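 Doxycycline (0.5 ug/mL, 24 h) induces the mutant before a 6-hour compound treatment. Reporter activity is then quantified by One-Glo luminescence.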

For assay [2], the system named is H1299 p53 Y220C. Briefly: Cell Proliferation Assay (CellTiter-Glo, CTG), H1299 p53 Y220C (NClH1299-inducible p53 Y220C). It counts as cell-based. The conditions noted are these: Homo sapiens, NCI-H1299, 120 h, CellTiter-Glo, H1299 p53 Y220C, 5 days. The method, boiled down: (§1)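 Tet-One inducible p53 Y220C or R273H constructs were stably introduced into NCI-H1299 by lentiviral transduction; NUGC3 was used as is. Cells (250-500 per well) were exposed to compound for 5 days, then CellTiter-Glo was added for 10 min at room temperature and IC50 was calculated from luminescence.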

The target in assay [3] is T1, p53 Y220C mutant protein (amino acid residues 94-293) (Homo sapiens, UniProt P04637, Y220C).
T1 construct: p53 Y220C mutant protein (amino acid residues 94-293)
Briefly: Surface Plasmon Resonance (SPR) assay, Kd_kinetic. It counts as binding. The method, boiled down: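 Kinetic dissociation constants derived by 1:1 model fit of SPR data acquired at 16 or 20 °C, pH 7.5 Tris/NaCl running buffer with 1% DMSO.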

In assay [4] the test system is H1299 p53 R273H. Kind of assay: Cell Proliferation Assay (CellTiter-Glo, CTG), H1299 p53 R273H (NClH1299-inducible p53 R273H). It counts as cell-based. To be noted: Homo sapiens, NCI-H1299, 120 h, CellTiter-Glo, H1299 p53 R273H, 5 days. In short, it runs like this:
as §1

Assay [5] has as its target T1, p53 Y220C mutant protein (amino acid residues 94-293). Kind of assay: Thermal Shift Assay (TSA), dTM. It counts as binding. To be noted: thermal shift; for ΔTm at 10 µM: 10 uM compound, read-out: TSA P53 Y220C dTM (10 uM); for ΔTm at 100 µM: 100 uM compound, read-out: TSA P53 Y220C dTM (100 uM). The method, boiled down:
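TM is derived by fitting Sypro Orange melt curves (30 °C to 50 °C, 0.03 °C/second) to a Boltzmann two-state model. Beforehand, 5 μM p53 Y220C (94-293) sits with 10 μM or 100 μM compound for 3 hours at 20 °C in HEPES pH7.4 buffer containing 100 mM NaCl and 1% DMSO.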

For assay [6], the system named is NUGC3 p53 Y220C. Kind of assay: Cell Proliferation Assay (CellTiter-Glo, CTG), NUGC3 p53 Y220C. It counts as cell-based. To be noted: Homo sapiens, NUGC-3, 120 h, CellTiter-Glo, NUGC3 p53 Y220C, 5 days. The method, boiled down: as §1
(In ATP-based viability assays light output follows the ATP content of the culture.)

Where [7] appears, read: luciferase reporter, NClH1299 inducible p53 Y220C, 6 hour.
Where [8] appears, read: luciferase reporter, NClH1299 inducible p53 Y220C, 6 hour, read-out: Luc P53 Y220C AC50.
The mark [9] stands for this setting: SPR, kinetic KD, p53 Y220C, read-out: SPR P53 Y220C KD kinetic.

`CNC(=O)c1ccc(NCC#Cc2nc3c(N[C@H]4C[C@@H]5CC[C@@H](N5)[C@H]4F)cccn3c2SC(F)(F)F)c(OC)c1` [Example 201]: in assay [1] (setting [7]), the Emax was 80 to 90%. The AC50 in assay [1] (setting [8]) was below 750 nM. In addition, the IC50 was below 750 nM in assay [2], 5000 to 8000 nM in assay [4] and below 750 nM in assay [6]. Besides, the Kd in assay [3] (setting [9]) is below 10 nM. Also, the ΔTm at 10 µM in assay [5] is at least 10 °C. The ΔTm at 100 µM in assay [5] is at least 10 °C.
`CNC(=O)c1ccc(OC)c(NCC#Cc2nc3c(N[C@@H]4C[C@H]5CC[C@H](N5)[C@@H]4F)cccn3c2SC(F)(F)F)c1` [Example 202] registered a maximal effect (Emax) in assay [1] (setting [7]) of 70 to 80%. For the same compound, the AC50 in assay [1] (setting [8]) is below 750 nM. In addition, the IC50 in assay [2] was below 750 nM; in assay [4] it was 8000 to 10000 nM; in assay [6], below 750 nM. Also, the Kd in assay [3] (setting [9]) was below 10 nM. Also, the ΔTm at 10 µM in assay [5] is at least 10 °C. Further, the ΔTm at 100 µM in assay [5] was at least 10 °C.
The compound `CNC(=O)c1ccc(OC)c(NCC#Cc2nc3c(N[C@H]4C[C@@H]5CC[C@@H](N5)[C@H]4F)cccn3c2SC(F)(F)F)c1` [Example 203] returned an Emax in assay [1] (setting [7]) of 70 to 80%. The AC50 in assay [1] (setting [8]) was below 750 nM. Further, the values for the IC50 in assay [2], in assay [4] and in assay [6] were below 750 nM, 5000 to 8000 nM and below 750 nM, respectively. In addition, the Kd in assay [3] (setting [9]) is below 10 nM. The ΔTm at 10 µM in assay [5] was at least 10 °C. For the same compound, the ΔTm at 100 µM in assay [5] is at least 10 °C.
As to `CNC(=O)c1ccc(OC)c(NCC#Cc2nc3c(NC4CC5(C4)CN(CC(F)F)C5)cccn3c2SC(F)(F)F)c1` [Example 204], the AC50 in assay [1] lay within 750 to 1500 nM. The compound also came in with an Emax in assay [1] (setting [7]) above 90%. Besides, the IC50 in assay [2] was 750 to 1500 nM; in assay [4], at least 10000 nM; in assay [6], 750 to 1500 nM. Further, the Kd in assay [3] was below 10 nM. Also, the ΔTm at 10 µM in assay [5] lay in the range of 5 to 10 °C. Also, the ΔTm at 100 µM in assay [5] is at least 10 °C.
Consider `CNC(=O)c1ccc(NCC#Cc2nc3c(N[C@@H]4CCN(C)C[C@@H]4F)nccn3c2SC(F)(F)F)c(OC)c1` [Example 206, 4-{[3-(8-{[(3S,4R)-3-fluoro-1-methylpiperidin-4-yl]amino}-3-[(trifluoromethyl)sulfanyl]imidazo[1,2-a]pyrazin-2-yl)prop-2-yn-1-yl]amino}-3-methoxy-N-methylbenzamide], for which the Emax in assay [1] (setting [7]) was above 90%. In addition, in assay [1] (setting [8]), the AC50 is below 750 nM. Further, the IC50 in assay [2] is below 750 nM; in assay [4], at least 10000 nM; in assay [6] it was below 750 nM. The Kd in assay [3] (setting [9]) was below 10 nM. Besides, the ΔTm at 10 µM in assay [5] is at least 10 °C. For the same compound, in assay [5], the ΔTm at 100 µM is at least 10 °C.
`CNC(=O)c1ccc(OC)c(NCC#Cc2cc3c(N[C@@H]4CCN(C)C[C@@H]4F)nccn3c2SC(F)(F)F)n1` [Example 207] yielded a maximal response (Emax) in assay [1] (setting [7]) above 90%. Moreover, the AC50 in assay [1] (setting [8]) was below 750 nM. Further, the IC50 in assay [2] is below 750 nM; in assay [4], at least 10000 nM; in assay [6], below 750 nM. Moreover, the Kd in assay [3] (setting [9]) is below 10 nM. Also, the ΔTm at 10 µM in assay [5] is at least 10 °C.
For `CNC(=O)c1ccc(OC)c(NCC#Cc2nc3c(N[C@@H]4CCN(C)C[C@@H]4F)nccn3c2SC(F)(F)F)c1` [Example 212], the Emax in assay [1] (setting [7]) lay within 80 to 90%. In addition, in assay [1] (setting [8]), the AC50 was below 750 nM. Moreover, the values for the IC50 in assay [2], in assay [4] and in assay [6] were below 750 nM, at least 10000 nM and below 750 nM, respectively. The Kd in assay [3] (setting [9]) is below 10 nM. In addition, the ΔTm at 10 µM in assay [5] is at least 10 °C.

Source of the values: patent US20260374766A1, “METHODS FOR TREATING CANCER” (Antares Therapeutics, Inc., priority 2022, published 2026).
